Experimental findings from patent EP4588921A1, “FREE BASE CRYSTAL FORM OF POLYCYCLIC COMPOUND OF NITROGEN-CONTAINING HETEROCYCLE, AND PREPARATION METHOD THEREFOR” (Jiangsu Hansoh Pharmaceutical Group Co., Ltd., priority 2022, dated 2024) are described below.

In one data set the target is T1, human OX1R (Homo sapiens, UniProt O43613).
T1 construct: expressed in transfected cells; host or cells: CHO-K1
T1 sequence (O43613 1-425): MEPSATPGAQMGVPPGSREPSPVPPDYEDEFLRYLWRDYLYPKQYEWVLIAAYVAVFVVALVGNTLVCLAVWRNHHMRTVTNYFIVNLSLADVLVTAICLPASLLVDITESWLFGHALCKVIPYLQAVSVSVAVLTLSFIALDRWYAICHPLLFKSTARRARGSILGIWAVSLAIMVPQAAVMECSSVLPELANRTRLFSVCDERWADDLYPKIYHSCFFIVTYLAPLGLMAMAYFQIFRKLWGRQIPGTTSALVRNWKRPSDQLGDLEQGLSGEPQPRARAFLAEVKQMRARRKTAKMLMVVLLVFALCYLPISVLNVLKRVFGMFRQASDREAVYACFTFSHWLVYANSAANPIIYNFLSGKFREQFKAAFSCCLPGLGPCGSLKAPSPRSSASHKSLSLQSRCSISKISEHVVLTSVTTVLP
Briefly: Calcium current (FLIPR) in cells stably expressing OX1 receptor. It counts as cell-based. Particulars: CHO-K1/human OX1R cells; agonist OX-A at EC80; FLIPR Tetra. The protocol: (§1) Determination of the effect of the compounds of the present invention on calcium current in cells stably expressing OX1 and OX2 receptors 1. Experimental objective: The inhibitory effect of the compounds on calcium current activity in CHO-K1/human OX1R and CHO-K1/human OX2R cells was detected. 2. […] 3. […] The IC50 of the positive compounds and test compounds was determined. 4. Experimental data processing method: FLIPR Tetra was used to read and collect the fluorescence signal value (RFU). […] 5.

In another data set the target is T2, human OX2R (Homo sapiens, UniProt O43614).
T2 construct: expressed in transfected cells; host or cells: CHO-K1
T2 sequence (O43614 1-444): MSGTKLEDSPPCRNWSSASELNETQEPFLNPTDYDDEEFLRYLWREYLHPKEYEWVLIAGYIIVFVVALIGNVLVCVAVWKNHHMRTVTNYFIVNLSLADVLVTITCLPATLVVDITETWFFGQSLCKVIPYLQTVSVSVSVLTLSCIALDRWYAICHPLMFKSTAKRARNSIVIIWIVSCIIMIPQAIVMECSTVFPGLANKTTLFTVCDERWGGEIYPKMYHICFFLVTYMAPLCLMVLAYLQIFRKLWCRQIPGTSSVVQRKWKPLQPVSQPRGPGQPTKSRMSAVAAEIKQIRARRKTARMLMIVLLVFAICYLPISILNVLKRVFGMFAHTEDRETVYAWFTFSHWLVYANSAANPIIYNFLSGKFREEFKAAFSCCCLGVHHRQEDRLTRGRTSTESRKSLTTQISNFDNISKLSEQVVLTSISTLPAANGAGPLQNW
Briefly: Calcium current (FLIPR) in cells stably expressing OX2 receptor. It counts as cell-based. To be noted: for IC50: CHO-K1/human OX2R cells, agonist OX-B at EC80, FLIPR Tetra; for Select fold: OX1R IC50 over OX2R IC50. The protocol: as §1

A further data set can be described thus: in vivo. To be noted: male, SD, rat, po, 5 mg/kg. The method, then:
SD rats were used as test animals to study the pharmacokinetic behaviour of the compounds of the present invention in rat (plasma) after oral administration at a dose of 5 mg/kg.
The example compound of the present invention, made in house.
Oral administration drug preparation: 20%HP-β-CD in Water
HP-β-CD powder (20 g) was weighed and dissolved in purified water (100 mL), and the mixture was homogeneously mixed by vortex and subjected to ultrasound treatment to afford a clear solution.
The example compound was weighed and added to a 20 mL glass bottle, the solution was added and the mixture was subjected to ultrasound treatment for 10 minutes to afford a colourless clear solution with a concentration of 0.5 mg/mL.
The brain tissues were rinsed with pre-cooled PBS, wiped dry, weighed, and stored at -80°C.
• 1) Acetonitrile (160 µL) was added to plasma sample (40 µL) for precipitation, and the mixture was mixed and centrifuged at 3500 × g for 5 to 20 minutes. • 2) The treated supernatant solution was taken and subjected to LC/MS/MS to analyse the concentrations of the test compounds. LC/MS/MS analysis instrument: AB Sciex API 4000 Qtrap.
• Liquid phase conditions: Shimadzu LC-20AD pump • Chromatographic column: Agilent ZORBAX XDB-C18 (50×2.1 mm, 3.5 µm) mobile phase: liquid A: 0.1% aqueous formic acid solution, liquid B: acetonitrile • Flow rate: 0.4 mL/min • Elution time: 0-4.0 min, the eluent is as follows:
The main pharmacokinetic parameters were calculated using WinNonlin 6.1.

For a further data set, the target named is T3, CYP450 1A2 (Homo sapiens, UniProt P05177).
T3 construct: Human liver microsome incubation system was used; from tissue; host or cells: human liver microsomes
T3 sequence (P05177 1-516): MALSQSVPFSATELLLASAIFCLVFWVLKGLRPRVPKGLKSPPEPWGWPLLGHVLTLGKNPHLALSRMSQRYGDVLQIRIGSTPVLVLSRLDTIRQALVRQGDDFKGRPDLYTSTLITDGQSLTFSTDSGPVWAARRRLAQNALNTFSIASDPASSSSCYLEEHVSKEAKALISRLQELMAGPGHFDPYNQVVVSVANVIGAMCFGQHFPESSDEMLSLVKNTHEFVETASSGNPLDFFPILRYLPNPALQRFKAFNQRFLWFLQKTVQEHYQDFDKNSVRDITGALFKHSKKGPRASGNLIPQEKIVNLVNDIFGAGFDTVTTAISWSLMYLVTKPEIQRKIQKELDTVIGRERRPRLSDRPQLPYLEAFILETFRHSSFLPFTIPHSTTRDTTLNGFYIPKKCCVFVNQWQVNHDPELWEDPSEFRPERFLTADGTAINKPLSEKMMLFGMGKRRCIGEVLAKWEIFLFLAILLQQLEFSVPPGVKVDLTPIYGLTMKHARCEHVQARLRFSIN
Briefly: CYP enzyme single point inhibition test, human liver microsomes. It counts as in vitro ADME. To be noted: 20 min incubation. The protocol:
(§2) Human liver microsome incubation system was used, and the single point method was used to quickly predict the inhibition of compounds on CYP450 enzyme subtypes.
(§3) NADPH (reduced nicotinamide adenine dinucleotide phosphate) was weighed and added to 100 mM phosphate buffer, with the final concentration being 2.5 mM.
(§4) Formulation of the reaction liquid of the test compound: The test example compound was weighed, diluted to 10 mM with DMSO, and diluted to 100 µM with 100 mM phosphate buffer.
(§5) • 1. Liver microsomes (40 µL), substrate (10 µL), and test compound (10 µL) were added to a 96-well plate and the mixture was pre-incubated for 3 min. • 2. NADPH (40 µL) was added. • 3. At 20 min, acetonitrile stop solution containing internal standard (300 µL) was added. • 4. The mixture was centrifuged and the sample was loaded.

In the next data set the target is T4, CYP450 2C19 (Homo sapiens, UniProt P33261).
T4 construct: Human liver microsome incubation system was used; from tissue; host or cells: human liver microsomes
T4 sequence (P33261 whole entry): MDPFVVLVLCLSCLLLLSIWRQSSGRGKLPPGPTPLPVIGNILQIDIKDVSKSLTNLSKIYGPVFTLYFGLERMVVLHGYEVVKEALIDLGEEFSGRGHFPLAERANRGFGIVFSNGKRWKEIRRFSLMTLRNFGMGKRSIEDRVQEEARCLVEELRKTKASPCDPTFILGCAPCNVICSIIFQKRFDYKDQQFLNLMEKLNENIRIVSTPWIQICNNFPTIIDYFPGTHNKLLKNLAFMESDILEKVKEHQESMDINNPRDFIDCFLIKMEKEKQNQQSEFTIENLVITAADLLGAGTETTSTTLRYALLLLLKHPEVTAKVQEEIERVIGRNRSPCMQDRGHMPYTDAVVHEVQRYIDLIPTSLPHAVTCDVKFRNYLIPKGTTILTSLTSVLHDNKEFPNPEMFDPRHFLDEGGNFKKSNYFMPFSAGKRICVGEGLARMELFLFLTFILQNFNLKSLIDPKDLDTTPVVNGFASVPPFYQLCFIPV
The data set is described as above. In kind it is in vitro ADME. Particulars: 20 min incubation. The protocol:
as §2, §3, §4, §5

Another data set has as its target T5, CYP450 2C9 (Homo sapiens, UniProt P11712).
T5 construct: Human liver microsome incubation system was used; from tissue; host or cells: human liver microsomes
The data set is described as above. In kind it is in vitro ADME. Particulars: 20 min incubation. The method, then:
as §2, §3, §4, §5

The target of another data set is T6, CYP450 2D6 (Homo sapiens, UniProt P10635).
T6 construct: Human liver microsome incubation system was used; from tissue; host or cells: human liver microsomes
T6 sequence (P10635 whole entry): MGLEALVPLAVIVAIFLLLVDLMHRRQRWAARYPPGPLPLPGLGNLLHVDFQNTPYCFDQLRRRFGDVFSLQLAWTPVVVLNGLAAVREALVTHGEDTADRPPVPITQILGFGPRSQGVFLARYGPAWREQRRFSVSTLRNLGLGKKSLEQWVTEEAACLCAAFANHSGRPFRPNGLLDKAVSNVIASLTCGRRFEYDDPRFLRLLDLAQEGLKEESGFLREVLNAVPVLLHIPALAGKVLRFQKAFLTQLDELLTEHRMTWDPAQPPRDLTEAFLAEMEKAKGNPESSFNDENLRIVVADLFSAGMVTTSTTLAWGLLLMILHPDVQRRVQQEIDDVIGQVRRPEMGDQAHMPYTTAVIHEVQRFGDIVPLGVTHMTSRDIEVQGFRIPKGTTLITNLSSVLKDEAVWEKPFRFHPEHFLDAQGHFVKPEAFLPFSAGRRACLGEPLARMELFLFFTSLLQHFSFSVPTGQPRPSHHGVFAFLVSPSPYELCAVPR
Described as above. It counts as in vitro ADME. Particulars: 20 min incubation. The protocol: as §2, §3, §4, §5

T5 sequence (P11712 whole entry): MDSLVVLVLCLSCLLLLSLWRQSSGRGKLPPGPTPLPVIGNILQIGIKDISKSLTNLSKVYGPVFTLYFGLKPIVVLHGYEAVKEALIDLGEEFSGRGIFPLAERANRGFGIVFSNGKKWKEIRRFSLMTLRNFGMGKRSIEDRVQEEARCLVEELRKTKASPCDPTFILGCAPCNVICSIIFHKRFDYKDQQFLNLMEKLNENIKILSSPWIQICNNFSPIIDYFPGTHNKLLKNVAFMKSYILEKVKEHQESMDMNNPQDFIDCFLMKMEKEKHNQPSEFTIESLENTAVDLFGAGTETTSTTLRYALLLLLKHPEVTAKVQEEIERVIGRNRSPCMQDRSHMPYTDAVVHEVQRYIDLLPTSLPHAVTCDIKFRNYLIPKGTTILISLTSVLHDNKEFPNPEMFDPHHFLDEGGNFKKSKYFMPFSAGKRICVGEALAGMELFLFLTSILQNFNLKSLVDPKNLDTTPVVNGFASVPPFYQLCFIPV

One may read the IC50 as the concentration at which inhibition is half-maximal. For orientation: AUC(0-inf) means total exposure, with the tail of the curve extrapolated. A high value points to high exposure. In general, Cmax refers to the maximum level reached in the sampled fluid or tissue. Broadly, the Tmax is the time from dosing to the highest level. Regarding `CC(C)(O)c1nc(N2C[C@H]3CN(C(=O)c4c(F)cccc4-c4ncccn4)C[C@H]3C2)ncc1F` [Compound 9, ((3aR,6aS)-5-(5-fluoro-4-(2-hydroxyprop-2-yl)pyrimidin-2-yl)hexahydropyrrolo[3,4-c]pyrrol-2(1H)-yl)(2-fluoro-6-(pyrimidin-2-yl)phenyl)methanone], the concentration for half-maximal inhibition (IC50) on human OX1R is 1.06 µM; at human OX2R, 0.0087 µM; against CYP450 1A2, more than 100 µM; against CYP450 2C19, 82.7 µM; on CYP450 2C9, more than 100 µM; against CYP450 2D6 it was more than 100 µM. The Select fold on human OX2R worked out at 122. This molecule also yielded a total exposure AUC(0-inf) in “in vivo” of 0.13 µg·h/mL. Further, the Cmax in the data set “in vivo” worked out at 0.124 µg/mL. In addition, in “in vivo”, the time of peak concentration (Tmax) was 36 min.

With `Cc1nc(N2C[C@H]3CN(C(=O)c4cccc(F)c4-n4nccn4)C[C@H]3C2)nc(C(C)(C)O)c1F` [Compound 11, (3-fluoro-2-(2H-1,2,3-triazol-2-yl)phenyl)((cis)-5-(5-fluoro-4-(2-hydroxypropan-2-yl)-6-methylpyrimidin-2-yl)hexahydropyrrolo [3,4-c]pyrrol-2(1H)-yl)methanone], the 50% inhibitory concentration (IC50) is 1.32 µM on human OX1R; 0.027 µM on human OX2R; more than 100 µM at CYP450 1A2; 82.7 µM at CYP450 2C19; more than 100 µM on CYP450 2C9; more than 100 µM against CYP450 2D6. At human OX2R, the Select fold is 49. Also, the AUC(0-inf) in the data set “in vivo” is 0.821 µg·h/mL. The maximum concentration (Cmax) in “in vivo” is 0.394 µg/mL. The time of peak concentration (Tmax) in “in vivo” came to 15 min.
